These results are taken from ChEMBL document CHEMBL1201862, “PubChem BioAssay data set” (2004).

Assay in all cases: NCI-60 cell line screen, 48 h
For test [1], the system named is DMS-114.
For test [2], the system named is DLD-1.
The subject of test [3] is SNB-78.
The test system of test [4] is RXF 631.
Test [5] concerns HOP-18.
The test system of test [6] is M19-MEL.
In test [7] the test system is KM-20L2.
In test [8] the test system is DMS-273.
Test [9] relates to XF498.

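All cell lines were grown in 96-well plates and treated with compound for 48 hours. Abbreviation: GI50, concentration required for 50% inhibition of growth.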 The source made the active and inactive calls. No stated cut-off is given here; in the data, active = GI50 up to about 1.1 µM and inactive = higher.

`O=C(CC1Sc2ccccc2NC1=O)Nc1ccc([N+](=O)[O-])cc1[N+](=O)[O-]` (configuration not stated): the GI50 in [1] was 14.2 µM (inactive); in test [2], 15.3 µM (inactive); in test [3], 21.2 µM (inactive); in test [4], 17.1 µM (inactive); in test [5], 3.39 µM (inactive); in test [6], 16.1 µM (inactive). In test [7], the GI50 was 26.7 µM (inactive).

On to `COc1ccc2nc3cc(Cl)ccc3c(NC(C)CCCN(CCCl)CCCl)c2c1` (configuration not stated), for which the GI50 was 0.733 µM (active) in test [1]; 0.524 µM (active) in [2]; 0.622 µM (active) in [3]; 0.109 µM (active) in test [8]; 0.598 µM (active) in test [6]; 0.333 µM (active) in [9]. The GI50 in [7] is 0.356 µM (active).

Turning to `Nc1cccc(C(=O)/C=C/c2ccccc2O)c1`, the GI50 in test [1] is 46.7 µM (inactive); in [2], > 100 µM (inactive); in test [3], > 100 µM (inactive); in [8], > 100 µM (inactive); in test [5] it was 84.3 µM (inactive); in [6], > 100 µM (inactive). For the same compound, the GI50 in test [9] and in test [7] was > 100 µM (inactive) each time.

As to `Cc1nc2ccccn2c1/N=N/c1ccc(C(=O)NN)cc1`, the GI50 is 17.4 µM (inactive) in test [1]; 52.4 µM (inactive) in [2]; > 100 µM (inactive) in test [3]; 31.7 µM (inactive) in [4]; 70.6 µM (inactive) in test [5]; > 100 µM (inactive) in [6]. Besides, the GI50 in [9] was 75 µM (inactive); in test [7], 92.9 µM (inactive).

For `C#CC1(O)CCC2C3CCc4cc(Oc5nc(F)nc(-c6c7ccccc7c7n6CCS7)n5)ccc4C3CC[C@@]21C` (some centres not stated), the GI50 is 11.2 µM (inactive) in test [1]; 39.8 µM (inactive) in test [2]; 27.2 µM (inactive) in test [8]; 33.9 µM (inactive) in test [6]; 37.7 µM (inactive) in [9]; 29.2 µM (inactive) in test [7].

Take `C[S+]=c1sc2ccccc2s1`: the GI50 in test [1], in test [2], in test [8], in [4], in test [5] and in [6] was > 100 µM (inactive) throughout. The GI50 in test [7] is > 100 µM (inactive).

For `COc1ccc(C(=O)C(C(=O)CC(=O)Nc2cccc(C(F)(F)F)c2)c2ccc(OC)cc2)cc1` (configuration not stated), the GI50 in test [1], in test [2], in [3], in [8], in test [4] and in test [6] was > 100 µM (inactive) in each case. For the same compound, the GI50 in test [9] and in test [7] was > 100 µM (inactive) throughout.

For the compound `COC(=O)C1CC2CC(=NNC(N)=O)CC2C1` (configuration not stated), the GI50 in test [1], in test [2], in test [3], in test [8], in [6] and in test [9] was > 100 µM (inactive) throughout.

For the compound `NC(=O)C(=O)Cc1nc2ccccc2s1`, the GI50 in [1], in test [3], in [5], in test [6], in test [9] and in test [7] was > 100 µM (inactive) each time.

Turning to `CC1CC(=O)Nc2ccccc2N1C(=O)CN1CCC(CCCCN(C)C)CC1` (configuration not stated), the GI50 in test [1], in test [2], in test [3], in test [8], in test [4] and in test [5] was > 100 µM (inactive) in each case. For the same compound, the GI50 in test [6] and in test [7] was > 100 µM (inactive) each time.

For `CC1=N/C(=C\c2cccc3ccccc23)C(=O)O1`, the GI50 in [1] was > 100 µM (inactive); in [2], > 100 µM (inactive); in test [3], > 100 µM (inactive); in test [4], > 100 µM (inactive); in test [5], 10.6 µM (inactive); in test [6], > 100 µM (inactive). Also, the GI50 in [7] was > 100 µM (inactive).

With `COC(=O)C1(C)NCCc2c1[nH]c1ccccc21` (configuration not stated), the GI50 in test [1], in test [2], in test [6] and in test [7] was > 100 µM (inactive) in each case.

Regarding `C[n+]1c2ccccc2c(CNC(CS)C(=O)O)c2ccccc21` (configuration not stated), the GI50 in test [2] was 24.6 µM (inactive); in [3] it was 34.3 µM (inactive); in test [8], 18.5 µM (inactive); in test [4], 24.9 µM (inactive); in test [5] it was 49.1 µM (inactive); in test [6] it was 27.7 µM (inactive). The values for the GI50 in [9] and in test [7] were 24.3 µM (inactive) and 20.4 µM (inactive), respectively.

With `C=C1CCC(OC(C)=O)C2(C)C(OC(C)=O)CC3OC3(C)C2C(OC(C)=O)C2C(C)C(=O)OC2C1Cl` (configuration not stated), the GI50 in test [1], in [2], in test [3], in test [8], in test [4] and in [5] was > 100 µM (inactive) in each case. For the same compound, the GI50 in test [6], in [9] and in test [7] was > 100 µM (inactive) throughout.

For `CN(C)C(=N)c1ccccc1`, the GI50 in test [1], in [3], in [8], in test [6], in [9] and in test [7] was > 100 µM (inactive) in each case.

As to `CCC12C=C(C(=O)OC)N3c4ccccc4C4CCN(CCC1)C2C43` (configuration not stated), the GI50 in test [1] is 63 µM (inactive); in test [2] it was 66.7 µM (inactive); in test [3] it was > 100 µM (inactive); in test [8], 59.6 µM (inactive); in [5], > 100 µM (inactive); in test [6] it was 75.9 µM (inactive). Further, the GI50 in [7] is 19.1 µM (inactive).
